The text below walks through data of patent US12319709B2, “Diaryl trehalose compounds and uses thereof” (THE UNIVERSITY OF MONTANA, priority 2018, dated 2025).

Each structure is given as a SMILES string.

One assay deals with RAW264.7 cells. The assay can be described thus: Cytokine (TNFα) response of mouse macrophage cell line; Table 2 'Murine'. The format is cell-based. Conditions: NR = no response. The procedure: Compounds were also tested in a mouse macrophage cell line (FIG. 4B). RAW264.7 cells were subjected to increasing concentrations of the compounds and assessed for production of the cytokine TNFα.

For assay [1], the system named is peripheral blood mononuclear cells (PBMCs). The experiment in a line: IL-6 induction in fresh human PBMCs. The format is cell-based. A digest of the protocol: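 Fresh human PBMCs incubated at 37 °C with serially diluted compounds delivered in DMSO into medium. IL-6 in supernatants quantified by ELISA 18 h after treatment.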
Assay [2] shares this test system. The assay can be described thus: Cytokine analysis of supernatants of stimulated, freshly prepared PBMCs. The format is cell-based, human. The conditions noted are these: compounds solubilized in DMSO. The procedure:
Tumor necrosis factor alpha (TNFα) and IL-6 production in peripheral blood mononuclear cells (PBMCs) was measured after exposure to various concentrations of the DAT compounds synthesized as shown above. Initial studies focused on two different methods of delivery of the DAT compounds to PBMC cultures. In the first delivery method, the indicated derivative compound was dissolved in isopropanol, serially diluted, and then dried to the bottom of a tissue culture plate. In the second delivery method, the indicated derivative compound was dissolved in DMSO and serially diluted into tissue culture media. In each method, PBMCs were added to the compounds and incubated at 37° C. TNFα (FIG. 1A) and IL-6 (FIG. 1B) were measured after 18-24 hours after treatment by ELISA assay.
Supernatants from the freshly prepared PBMCs stimulated with DAT compounds solubilized in DMSO (Example 5A) were analyzed for the cytokines that help drive Th1 cell or Th17 cell adaptive immune responses; IFNγ, IL-12 p70, IL-6, IL-1β, and IL-23. Minimal amounts of IL-12p70 were detected and IFNγ was undetectable. Therefore, both are not reported.

The next assay addresses T1, Mincle receptor (Mus musculus, UniProt Q9R0Q8).
T1 construct: expressed in transfected cells; host or cells: HEK-Blue Mincle reporter cells (HEK293-derived, NF-kB SEAP reporter)
T1 sequence (Q9R0Q8 1-214): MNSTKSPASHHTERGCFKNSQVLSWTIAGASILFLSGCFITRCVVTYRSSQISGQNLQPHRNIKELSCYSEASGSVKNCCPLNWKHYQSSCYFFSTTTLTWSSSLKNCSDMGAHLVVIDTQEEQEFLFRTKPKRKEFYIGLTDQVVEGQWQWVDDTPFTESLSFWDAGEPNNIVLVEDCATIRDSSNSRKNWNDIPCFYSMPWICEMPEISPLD
The assay can be described thus: HEK-Blue Mincle mouse reporter cells, NF-κB SEAP production. The class given is cell-based. How it is done:
Compounds were also tested in the commercial reporter Hek-Blue™ cell lines. Hek-Blue™ cells were treated with increasing concentrations of the indicated compound for 18 to 24 hours. Isolated supernatants were measured for NF-κB secreted embryonic alkaline phosphatase (SEAP) production with QUANTI-Blue™ reagent (FIG. 4A). SEAP production was robust for both the mouse and human reporter lines (FIG. 4A), indicating strong signaling through the Mincle receptor in both human and murine systems.

A further assay relates to Balb/c mice. The experiment in a line: i.m. immunization of Balb/c mice with M72 antigen and liposomal adjuvant; splenocyte restimulation, intracellular cytokine staining. The class given is in vivo, mouse.

As to `CC(C)(C)c1cc(C(=O)OCC2OC(OC3OC(COC(=O)c4cc(C(C)(C)C)cc(C(C)(C)C)c4O)C(O)C(O)C3O)C(O)C(O)C2O)c(O)c(C(C)(C)C)c1` (stereo not drawn) [UM1024, 6,6′-bis-(3,5-di-tert-butylsalisate)-α,α-trehalose], in the assay with RAW264.7 cells, the “Maximum cytokine response Murine” value is given as 3 and the “Minimal Effective Concentration Murine” value worked out at 0.45 µM. In assay [1] (human IL-6, NR = no response), the “Maximum cytokine response h-IL-6” value amounted to 3.5 OD and the “Minimal Effective Concentration h-IL-6” value was determined as 1 µM. Moreover, the “increased potency (EC50) for induction of cytokines relative to other compounds” value in assay [1] (human PBMCs) was “over 1000 ×”. Further, in assay [2], the “TNFα response in PBMCs (in words)” value is reported as “higher responding”. At Mincle receptor (18 to 24 hours, QUANTI-Blue), the “NF-κB SEAP production, mouse reporter line” value was “distinct very high peak at low concentration of compound”. Also, the “potency shift in comparison with other compounds, reporter cells” value at Mincle receptor (HEK-Blue Mincle reporter, compared with PBMC cytokine profiles) is recorded as “did not display a large leftward potency shift”. Further, the “IL-2 production compared to controls” value in the assay with Balb/c mice (10 nmol group) is reported as “substantially increased”. Further, the “TNFα production compared to controls” value with Balb/c mice (higher doses) is “increased compared to controls”. In addition, the “antigen-specific CD4+ and CD8+ IL-17A producing cells (Th17 response)” value in the assay on Balb/c mice (liposomal formulation, M72 restimulated splenocytes, TDB at highest dose) is “induced high levels of antigen-specific CD4+ and CD8+ IL17A producing cells”. In addition, the “IL-5 production (Th2 response) in restimulated cells” value with Balb/c mice (liposomal formulation, M72 vaccine) is reported as “seen in restimulated cells”.
